# Laboratory results published in patent EP0314239A2, “Tripeptide renin inhibitors with N-terminal ureido or sulfamido groups” (Merck & Co., Inc., priority 1987, dated 1989).
# Target: T1, renin (Homo sapiens, UniProt P00797)
# T1 sequence (P00797 67-406): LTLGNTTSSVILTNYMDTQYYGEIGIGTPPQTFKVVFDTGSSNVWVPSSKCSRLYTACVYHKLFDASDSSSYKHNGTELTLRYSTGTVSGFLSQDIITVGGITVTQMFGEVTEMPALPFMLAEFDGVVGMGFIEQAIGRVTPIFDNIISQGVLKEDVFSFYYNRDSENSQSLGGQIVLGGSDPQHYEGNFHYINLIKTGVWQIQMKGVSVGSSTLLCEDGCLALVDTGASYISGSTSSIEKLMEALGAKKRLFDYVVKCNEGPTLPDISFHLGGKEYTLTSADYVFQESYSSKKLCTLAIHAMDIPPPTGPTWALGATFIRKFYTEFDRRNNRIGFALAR
# Assay: Renin inhibition IC50, by the methods of J. Med. Chem., 1985, 28, 1789-1790
# Assay type: biochemical
# Source text: The following examples are intended to be representative and not limiting. ICso results were obtained according to the methods described in J. Med. Chem., 1985, 28, 1789-1790.
row,IC50,Structure (SMILES)
1,10 nM,"CC[C@H](C)CNC(=O)C[C@H](O)[C@H](CC1CCCCC1)NC(=O)[C@H](Cc1c[nH]cn1)NC(=O)[C@H](Cc1ccccc1)NC(=O)N1CCN(C(=O)OC(C)(C)C)CC1 [Example 5, N-(4-Boc-Piperizinyl)Carbonyl-Phenylalanyl-Histidyl-ACHPA-2(S)Methylbutylamide]"
2,43 nM,"CC[C@H](C)CNC(=O)C[C@H](O)[C@H](CC1CCCCC1)NC(=O)[C@H](Cc1c[nH]cn1)NC(=O)[C@H](Cc1ccccc1)NC(=O)N1CCNCC1 [Example 6, N-(Piperazin-1-yl)carbonyl-Phenylalanyl-Histidyl-ACHPA-2(S)-Methylbutylamide]"

# The remaining lines, values behind:
row,Structure (SMILES),IC50
1,"CC[C@H](C)CNC(=O)C[C@H](O)[C@H](CC1CCCCC1)NC(=O)[C@H](Cc1c[nH]cn1)NC(=O)[C@H](Cc1ccccc1)NC(=O)N1CCOCC1 [Example 4, N-(Morpholin-4-yl)carbonyl-Phenylalanyl-Histidyl-ACHPA-2(S)-Methylbutylamide]",5 nM
2,"C[N+]12CCC(CC1)C(NC(=O)C[C@H](O)[C@H](CC1CCCCC1)NC(=O)[C@H](Cc1c[nH]cn1)NC(=O)[C@H](Cc1ccccc1)NC(=O)N1CCOCC1)C2 (stereo partly drawn) [Example 7, N-(morpholin-4-yl)carbonyl-L-Phenylalanyl-L-Histidyl(3S,4S)-4-Amino-5-Cyclohexyl-3-Hydroxypentanoyl-1-Methylquinuclidinium-3-yl-Amide Acetate]",29 nM
3,"O=C(C[C@H](O)[C@H](CC1CCCCC1)NC(=O)[C@H](Cc1c[nH]cn1)NC(=O)[C@H](Cc1ccccc1)NC(=O)N1CCOCC1)NC1CN2CCC1CC2 (stereo partly drawn) [N-(morpholin-4-yl)carbonyl-L-Phenylalanyl-L-Histidyl-(3S,4S)-4-amino-5-cyclohexyl-3-hydroxy pentanoyl-3-quinuclidinyl amide]",30 nM
